Test results as given in US12275684B2, “Methods for making and using endoxifen” (Atossa Therapeutics, Inc., priority 2017, dated 2025).
Several values for one entry are separate records, joined by “and”; a condition that tells them apart may be missing. Equal values may be shown once. Read-outs that look alike come from different tables or passages of the source.

Assay: Placebo controlled, dose escalation pharmacokinetic study of oral (Z)-Endoxifen capsules (serum endoxifen; incl. accumulation ratios and dose linearity)
Assay type: in vivo, human
Conditions: for AUC(0-inf) / AUC(0-t) / Cmax / Tmax / Vd/F / concentration at 72 h / concentration at 120 h / concentration at 0.5 h / concentration at 1 h / concentration at 2 h / concentration at 3 h / concentration at 4 h / concentration at 5 h / concentration at 8 h / concentration at 10 h / concentration at 12 h / concentration at 24 h: female, human, serum, oral; for concentration at 72 h: Day 4 Hr 72; for concentration at 120 h: Day 6 Hr 120; for concentration at 0.5 h: Day 1 hr 0.5; for concentration at 1 h: Day 1 hr 1; for concentration at 2 h: Day 1 hr 2; for concentration at 3 h: Day 1 hr 3; for concentration at 4 h: Day 1 hr 4; for concentration at 5 h: Day 1 hr 5; for concentration at 8 h: Day 1 hr 8; for concentration at 10 h: Day 1 hr 10; for concentration at 12 h: Day 1 hr 12; for concentration at 24 h: Day 1 hr 24
Excerpt: An objective of the study was to assess the safety and tolerability of oral (Z)-Endoxifen when administered […] orally as a capsule to healthy female volunteers. A secondary objective was to assess the pharmacokinetics of multiple doses of oral (Z)-Endoxifen in the subjects.
Generally, healthy female volunteers aged ≥18 years and ≤65 years were enrolled. 24 participants were enrolled in 3 cohorts and will be administered study drug orally. Three dose levels of orally administered (Z)-Endoxifen were investigated in 3 cohorts. In each cohort participants were randomized to receive an oral (Z)-Endoxifen or placebo in a blinded fashion. Enteric-resistant capsules used in the study were designed as delayed release capsules to resist rupture for at least 30 minutes, but typically, for about 2 hours, under gastric conditions and then open fully in intestinal fluid (DRCaps; Capsugel, a Lonza Company, USA). Enteric-resistant (Swedish Orange size Zero (0); Capsugel, USA) DRCaps capsules manually filled with 1, 2 or 4 mg of (Z)-endoxifen neat in compliance with GMP requirements were used. Placebo capsules contained microcrystalline cellulose an inert common capsule and tablet excipient.
Each cohort enrolled 8 participants, with 6 participants receiving (Z)-Endoxifen 1 mg capsules orally at 1 mg (Cohort 1), 2 mg (Cohort 2) or 4 mg (Cohort 3) doses and 2 participants receiving matching placebo capsules. In Cohort 1 (Dose Level=1 mg) two participants (sentinels) were dosed 24 hours prior to the remaining participants. One sentinel was dosed with (Z)-Endoxifen and the other with placebo. The remaining six participants in Cohort 1 were dosed as no safety concerns were identified in the sentinel participants. The non-sentinel participants in Cohort 1 were admitted to the clinical research facility at least one day later than the sentinels. There were no sentinels in Cohorts 2 and 3.
Participant engagement in this study was for a period of 56 days. These included a 28 day screening period, and a 7 day post treatment period for Pharmacokinetic (PK) sampling. There were two confinement periods, one at the beginning and one at the end of the dosing periods. Participants were confined to the clinical facility on Days-1 through to Day 2 and Days 21 and 22. If participants were to experience any clinically significant adverse events during the study, they would have been required to remain in the clinical facility for further observation at the discretion of the Principal Investigator (PI).
Healthy female volunteers were screened within 28 days prior to commencement of dosing. Participants were admitted to the clinical facility on Day-1 for up to 3 days. The first dose of (Z)-Endoxifen or placebo capsules was administered on Day 1. Following completion of all safety assessments and sampling for PK analyses, participants were discharged from the clinical facility on Day 2. The first dose on Day 1 was followed by a 6-day treatment free period (Days 2-7). Each participant returned to the clinical facility for PK blood draws and safety assessments during the treatment free period on study Days 4 and 6. On Day 8 participants commenced daily administration of (Z)-Endoxifen capsules or placebo capsules for 14 consecutive days (Days 8-21). Participants were supplied with study drug capsules and asked to self administer daily. Participants visited the clinical facility on Days 11, 14 and 17, prior to dose administration, for PK blood draws and safety assessments. On the morning of Day 21 each participant returned to the clinical facility prior to dose administration and were confined to the facility until Day 22 to allow for the collection of PK blood draws and safety assessments. The Day 21 dose was the last administration of study drug. Participants were discharged from the clinical facility on Day 22 and returned for PK blood draws and safety assessments on study Days 24, 26, and 28. […]

[1] = 1 mg, read-out: Serum concentration, GeoMean
[2] = 1 mg, read-out: Serum concentration, Max
[3] = 1 mg, read-out: Serum concentration, Mean
[4] = 1 mg, read-out: Serum concentration, Median
[5] = 1 mg, read-out: Serum concentration, Min

## CC/C(=C(\c1ccc(O)cc1)c1ccc(OCCNC)cc1)c1ccccc1 [(Z)-Endoxifen, (Z)-4-(1-(4-(2-(methylamino)ethoxy)phenyl)-2-phenylbut-1-enyl) phenol]
Dose: 2 mg oral, Day 1
  AUC(0-inf), individual subjects: 1188 ng·h/mL and 755 ng·h/mL and 954 ng·h/mL and 1242 ng·h/mL and 1489 ng·h/mL
Dose: 4 mg oral, Day 1
  AUC(0-inf), individual subjects: 1098 ng·h/mL and 1642 ng·h/mL and 736 ng·h/mL and 1883 ng·h/mL and 2116 ng·h/mL and 4624 ng·h/mL
FIG. 3 and FIG. 4
  Time to maximum serum endoxifen levels: about 10 hours
Across the three dose levels, once daily oral
  dose response of Cmax and AUC24hr: dose-proportionality (linear dose response)
Dose 1 mg (n = 5)
  Mean Ratio AUC24 hr(Day 21)/AUC0-inf(Day 1): 0.81 (SD 0.20)
  Mean Ratio AUC24 hr(Day 21)/AUC24 hr(Day 1): 3.09 (SD 1.49)
  Mean Ratio Cmax(Day 21)/Cmax(Day 1): 2.74 (SD 1.29)
Dose 2 mg (n = 6)
  Mean Ratio AUC24 hr(Day 21)/AUC0-inf(Day 1): 0.85 (SD 0.20)
  Mean Ratio AUC24 hr(Day 21)/AUC24 hr(Day 1): 3.04 (SD 0.79)
  Mean Ratio Cmax(Day 21)/Cmax(Day 1): 2.92 (SD 0.88)
Dose 4 mg (n = 6)
  Mean Ratio AUC24 hr(Day 21)/AUC0-inf(Day 1): 1.08 (SD 0.38)
  Mean Ratio AUC24 hr(Day 21)/AUC24 hr(Day 1): 3.47 (SD 1.08)
  Mean Ratio Cmax(Day 21)/Cmax(Day 1): 3.56 (SD 1.01)
1 mg, Day 1, 1 mg, N = 5, read-out: AUC0-inf, GeoMean
  AUC(0-inf): 559 ng·h/mL
1 mg, Day 1, 1 mg, N = 5, read-out: AUC0-inf, Mean
  AUC(0-inf): 567 ng·h/mL
1 mg, Day 1, 1 mg, N = 5, read-out: AUC0-inf, Median
  AUC(0-inf): 534 ng·h/mL
1 mg, Day 1, 1 mg, N = 5, read-out: AUC24hr, GeoMean
  AUC(0-t): 155 ng·h/mL
1 mg, Day 1, 1 mg, N = 5, read-out: AUC24hr, Mean
  AUC(0-t): 158 ng·h/mL
1 mg, Day 1, 1 mg, N = 5, read-out: AUC24hr, Median
  AUC(0-t): 171 ng·h/mL
1 mg, Day 1, 1 mg, N = 5, read-out: AUCTlast, GeoMean
  AUC(0-t): 466 ng·h/mL
1 mg, Day 1, 1 mg, N = 5, read-out: AUCTlast, Mean
  AUC(0-t): 471 ng·h/mL
1 mg, Day 1, 1 mg, N = 5, read-out: AUCTlast, Median
  AUC(0-t): 472 ng·h/mL
1 mg, Day 1, 1 mg, N = 5, read-out: Cmax, GeoMean
  Cmax: 9.5 ng/mL
1 mg, Day 1, 1 mg, N = 5, read-out: Cmax, Mean
  Cmax: 9.6 ng/mL
1 mg, Day 1, 1 mg, N = 5, read-out: Cmax, Median
  Cmax: 10 ng/mL
1 mg, Day 1, 1 mg, N = 5, read-out: Tmax, GeoMean
  Tmax: 5.11 h
1 mg, Day 1, 1 mg, N = 5, read-out: Tmax, Mean
  Tmax: 5.62 h
1 mg, Day 1, 1 mg, N = 5, read-out: Tmax, Median
  Tmax: 6 h
1 mg, Day 1, 1 mg, N = 5, read-out: Vz/F, GeoMean
  Vd/F: 118 L
1 mg, Day 1, 1 mg, N = 5, read-out: Vz/F, Mean
  Vd/F: 120 L
1 mg, Day 1, 1 mg, N = 5, read-out: Vz/F, Median
  Vd/F: 108 L
1 mg, Day 21, 1 mg, N = 5, read-out: AUC24hr, GeoMean
  AUC(0-t): 431 ng·h/mL
1 mg, Day 21, 1 mg, N = 5, read-out: AUC24hr, Mean
  AUC(0-t): 458 ng·h/mL
1 mg, Day 21, 1 mg, N = 5, read-out: AUC24hr, Median
  AUC(0-t): 527 ng·h/mL
1 mg, Day 21, 1 mg, N = 5, read-out: Cmax, GeoMean
  Cmax: 23.3 ng/mL
1 mg, Day 21, 1 mg, N = 5, read-out: Cmax, Mean
  Cmax: 24.6 ng/mL
1 mg, Day 21, 1 mg, N = 5, read-out: Cmax, Median
  Cmax: 29 ng/mL
1 mg, Day 21, 1 mg, N = 5, read-out: Tmax, GeoMean
  Tmax: 6.64 h
1 mg, Day 21, 1 mg, N = 5, read-out: Tmax, Mean
  Tmax: 6.88 h
1 mg, Day 21, 1 mg, N = 5, read-out: Tmax, Median
  Tmax: 8 h
1 mg, Day 21, 1 mg, N = 5, read-out: Vz/F, GeoMean
  Vd/F: 173 L
1 mg, Day 21, 1 mg, N = 5, read-out: Vz/F, Mean
  Vd/F: 181 L
1 mg, Day 21, 1 mg, N = 5, read-out: Vz/F, Median
  Vd/F: 170 L
[1]
  concentration at 72 h: 7.84 nM
  concentration at 120 h: 3.53 nM
  concentration at 0.5 h: 3.18 nM
  concentration at 1 h: 3.33 nM
  concentration at 2 h: 17 nM
  concentration at 3 h: 17.1 nM
  concentration at 4 h: 20.1 nM
  concentration at 5 h: 23.2 nM
  concentration at 8 h: 21.1 nM
  concentration at 10 h: 21.6 nM
  concentration at 12 h: 17.1 nM
  concentration at 24 h: 14.7 nM
[2]
  concentration at 72 h: 10.7 nM
  concentration at 120 h: 5.35 nM
  concentration at 0.5 h: 5.35 nM
  concentration at 1 h: 8.03 nM
  concentration at 2 h: 18.7 nM
  concentration at 3 h: 18.7 nM
  concentration at 4 h: 26.8 nM
  concentration at 5 h: 26.8 nM
  concentration at 8 h: 32.1 nM
  concentration at 10 h: 32.1 nM
  concentration at 12 h: 21.4 nM
  concentration at 24 h: 18.7 nM
[3]
  concentration at 72 h: 8.03 nM
  concentration at 120 h: 3.75 nM
  concentration at 0.5 h: 2.68 nM
  concentration at 1 h: 3.75 nM
  concentration at 2 h: 17.1 nM
  concentration at 3 h: 17.1 nM
  concentration at 4 h: 20.3 nM
  concentration at 5 h: 23.6 nM
  concentration at 8 h: 22 nM
  concentration at 10 h: 22.5 nM
  concentration at 12 h: 18.2 nM
  concentration at 24 h: 15 nM
[4]
  concentration at 72 h: 8.03 nM
  concentration at 120 h: 2.68 nM
  concentration at 0.5 h: 2.68 nM
  concentration at 1 h: 2.68 nM
  concentration at 2 h: 18.7 nM
  concentration at 3 h: 16.1 nM
  concentration at 4 h: 18.7 nM
  concentration at 5 h: 24.1 nM
  concentration at 8 h: 21.4 nM
  concentration at 10 h: 21.4 nM
  concentration at 12 h: 21.4 nM
  concentration at 24 h: 16.1 nM
[5]
  concentration at 72 h: 5.35 nM
  concentration at 120 h: 2.68 nM
  concentration at 0.5 h: 0 nM
  concentration at 1 h: 2.68 nM
  concentration at 2 h: 13.4 nM
  concentration at 3 h: 16.1 nM
  concentration at 4 h: 18.7 nM
  concentration at 5 h: 16.1 nM
  concentration at 8 h: 13.4 nM
  concentration at 10 h: 13.4 nM
  concentration at 12 h: 8.03 nM
  concentration at 24 h: 10.7 nM
2 mg, Day 1, 2 mg, N 6, read-out: AUC0-inf, GeoMean
  AUC(0-inf): 1080 ng·h/mL
